Experiment [1] addresses T1, JAK2 (Homo sapiens, UniProt O60674).
T1 construct: host or cells: baculovirus expression system
As to the kind of experiment: Recombinant Human JAK2 Kinase Assay (TRF). Conditions: JAK2 kinase inhibition, 0.2 μM ATP; read-out: JAK2 Potency. It counts as biochemical. A digest of the protocol: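 Baculovirus-expressed JAK2 (15 ng/ml) phosphorylated a biotinylated 15-mer peptide captured on Neutravidin, in 20 mM HEPES pH 7.2, 0.2 μM ATP, 1 mM MnCl2, 0.1% BSA, 2.5% DMSO final, 20 min at room temperature. Phosphoproduct detected by time-resolved fluorescence with Eu-N1-labelled PY100 antibody.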

Experiment [2] deals with T2, ALK (Homo sapiens, UniProt Q9UM73).
T2 construct: host or cells: baculovirus expression system
T2 sequence (Q9UM73 19-1620): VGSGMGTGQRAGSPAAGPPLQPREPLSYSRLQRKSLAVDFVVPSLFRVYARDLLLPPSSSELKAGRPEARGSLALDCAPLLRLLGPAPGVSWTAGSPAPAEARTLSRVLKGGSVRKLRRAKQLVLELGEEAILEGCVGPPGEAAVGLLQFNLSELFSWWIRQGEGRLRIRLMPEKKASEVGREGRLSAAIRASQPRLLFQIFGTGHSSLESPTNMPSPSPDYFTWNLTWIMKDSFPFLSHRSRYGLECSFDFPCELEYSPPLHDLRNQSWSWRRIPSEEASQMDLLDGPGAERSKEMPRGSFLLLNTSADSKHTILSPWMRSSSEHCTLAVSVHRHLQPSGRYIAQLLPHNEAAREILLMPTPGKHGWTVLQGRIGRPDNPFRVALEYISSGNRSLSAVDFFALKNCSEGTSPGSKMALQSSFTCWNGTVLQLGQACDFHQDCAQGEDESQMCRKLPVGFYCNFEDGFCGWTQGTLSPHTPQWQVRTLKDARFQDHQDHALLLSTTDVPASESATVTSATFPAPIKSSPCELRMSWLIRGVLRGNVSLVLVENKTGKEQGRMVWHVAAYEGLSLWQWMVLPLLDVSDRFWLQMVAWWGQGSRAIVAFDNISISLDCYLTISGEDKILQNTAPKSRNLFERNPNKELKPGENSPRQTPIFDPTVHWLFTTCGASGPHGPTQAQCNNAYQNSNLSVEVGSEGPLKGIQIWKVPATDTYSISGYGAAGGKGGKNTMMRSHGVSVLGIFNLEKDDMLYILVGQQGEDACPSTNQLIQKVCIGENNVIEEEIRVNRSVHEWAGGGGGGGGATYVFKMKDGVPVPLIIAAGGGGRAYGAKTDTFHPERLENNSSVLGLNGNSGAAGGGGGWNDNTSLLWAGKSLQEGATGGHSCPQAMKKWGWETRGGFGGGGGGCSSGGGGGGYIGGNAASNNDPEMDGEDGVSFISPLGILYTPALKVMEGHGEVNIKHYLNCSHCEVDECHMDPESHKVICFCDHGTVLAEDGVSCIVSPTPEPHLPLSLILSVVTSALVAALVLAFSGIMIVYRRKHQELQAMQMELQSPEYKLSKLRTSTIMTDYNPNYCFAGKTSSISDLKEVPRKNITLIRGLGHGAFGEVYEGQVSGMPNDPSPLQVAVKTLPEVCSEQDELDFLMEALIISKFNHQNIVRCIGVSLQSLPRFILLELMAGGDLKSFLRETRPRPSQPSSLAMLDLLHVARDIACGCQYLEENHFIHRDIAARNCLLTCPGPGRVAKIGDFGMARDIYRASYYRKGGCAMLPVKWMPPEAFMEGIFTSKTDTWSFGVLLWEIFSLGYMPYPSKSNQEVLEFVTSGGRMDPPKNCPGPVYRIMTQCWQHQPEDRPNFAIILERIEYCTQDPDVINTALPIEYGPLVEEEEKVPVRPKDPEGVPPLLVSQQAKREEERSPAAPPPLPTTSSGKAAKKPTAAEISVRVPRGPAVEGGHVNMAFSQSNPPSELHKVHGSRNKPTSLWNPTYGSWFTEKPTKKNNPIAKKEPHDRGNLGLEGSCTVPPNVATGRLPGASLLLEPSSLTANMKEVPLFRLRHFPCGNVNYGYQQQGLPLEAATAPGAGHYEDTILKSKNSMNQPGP
The experiment can be described thus: ALK Kinase Assay (ELISA/TRF, PLC-γ substrate). Particulars: ALK kinase inhibition, 1 μM ATP; read-out: ALK Potency. Format: biochemical. The essentials: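 PLC-γ substrate coated at 10 μg/mL in TBS; reaction started with 30 ng/ml ALK, run 15 min at 37° C. Phosphoproduct detected by TRF with Eu-N1-labeled PT66 anti-phosphotyrosine antibody. IC50 from sigmoidal variable-slope fit of percent inhibition versus log concentration.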
(ELISA stands for enzyme-linked immunosorbent assay.)

pIC50: −log10 of the molar value.

Our source for the IC50 values is patent US8471005B2 (Cephalon, Inc., priority 2008, dated 2013).

T1 sequence (O60674 whole entry): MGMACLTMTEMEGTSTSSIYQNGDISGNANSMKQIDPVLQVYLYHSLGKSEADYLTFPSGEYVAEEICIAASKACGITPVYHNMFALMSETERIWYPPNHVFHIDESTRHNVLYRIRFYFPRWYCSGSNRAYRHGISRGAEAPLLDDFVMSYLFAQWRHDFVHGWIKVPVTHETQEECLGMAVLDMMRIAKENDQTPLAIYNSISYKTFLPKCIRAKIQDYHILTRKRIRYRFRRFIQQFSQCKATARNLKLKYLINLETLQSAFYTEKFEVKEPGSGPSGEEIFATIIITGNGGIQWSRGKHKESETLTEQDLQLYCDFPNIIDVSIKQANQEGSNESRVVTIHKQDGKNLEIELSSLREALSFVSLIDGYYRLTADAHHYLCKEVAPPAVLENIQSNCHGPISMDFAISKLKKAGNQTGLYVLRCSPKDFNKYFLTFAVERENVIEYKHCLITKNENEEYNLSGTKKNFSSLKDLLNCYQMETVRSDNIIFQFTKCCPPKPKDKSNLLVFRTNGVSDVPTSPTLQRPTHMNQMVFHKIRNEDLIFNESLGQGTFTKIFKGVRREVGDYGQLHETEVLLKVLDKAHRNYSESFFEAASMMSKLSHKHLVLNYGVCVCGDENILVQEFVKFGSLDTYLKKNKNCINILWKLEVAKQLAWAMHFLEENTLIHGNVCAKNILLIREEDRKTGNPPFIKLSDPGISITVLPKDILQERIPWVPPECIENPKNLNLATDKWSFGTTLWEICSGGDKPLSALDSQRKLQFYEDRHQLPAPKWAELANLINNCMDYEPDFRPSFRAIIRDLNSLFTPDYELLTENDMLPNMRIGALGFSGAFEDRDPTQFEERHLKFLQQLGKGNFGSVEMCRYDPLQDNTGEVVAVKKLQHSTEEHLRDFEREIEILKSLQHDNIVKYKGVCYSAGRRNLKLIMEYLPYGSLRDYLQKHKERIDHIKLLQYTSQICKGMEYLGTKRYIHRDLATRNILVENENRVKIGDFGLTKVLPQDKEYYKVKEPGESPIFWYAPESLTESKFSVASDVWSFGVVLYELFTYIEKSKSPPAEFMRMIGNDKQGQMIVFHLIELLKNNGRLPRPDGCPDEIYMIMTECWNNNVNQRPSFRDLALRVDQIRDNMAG

On to `CON=C1CCC(c2ccc(Nc3ncc4ccc(-c5cccc(S(=O)(=O)NC(C)(C)C)c5)n4n3)cc2)CC1` (stereo not drawn) [Example 571, N-tert-Butyl-3-{2-[4-(4-methoxyimino-cyclohexyl)-phenylamino]-pyrrolo[2,1-f][1,2,4]triazin-7-yl}-benzenesulfonamide], for which the pIC50 in experiment [1] is > 7.00; in experiment [2] it was < 5.00.
Take `Cc1nc2ccc(Nc3ncc4ccc(-c5cccc(S(=O)(=O)NC(C)(C)C)c5)n4n3)cc2s1` [Example 572, N-tert-Butyl-3-[2-(2-methyl-benzothiazol-6-ylamino)-pyrrolo[2,1-f][1,2,4]triazin-7-yl]-benzenesulfonamide]: the pIC50 was > 7.00 in experiment [1] and < 5.00 in experiment [2].
The corresponding values for `CC(C)(C)NS(=O)(=O)c1cccc(-c2ccc3cnc(Nc4ccc5ncsc5c4)nn23)c1` [Example 573, 3-[2-(Benzothiazol-6-ylamino)-pyrrolo[2,1-f][1,2,4]triazin-7-yl]-N-tert-butyl-benzenesulfonamide] are > 7.00 and < 5.00.
In the same order, the values of `Cc1nc2cc(Nc3ncc4ccc(-c5cccc(S(=O)(=O)NC(C)(C)C)c5)n4n3)ccc2s1` [Example 574, N-tert-Butyl-3-[2-(2-methyl-benzothiazol-5-ylamino)-pyrrolo[2,1-f][1,2,4]triazin-7-yl]-benzenesulfonamide] are > 7.00 and 5.00 to 6.00.
As to `CC(C)(C)NS(=O)(=O)c1cccc(-c2ccc3cnc(Nc4ccc5scnc5c4)nn23)c1` [Example 575, 3-[2-(Benzothiazol-5-ylamino)-pyrrolo[2,1-f][1,2,4]triazin-7-yl]-N-tert-butyl-benzenesulfonamide], the pIC50 in experiment [1] was > 7.00; in experiment [2], 5.00 to 6.00.
With `CON=C1CCC(c2ccc(Nc3ncc4ccc(-c5cccc(S(=O)(=O)C(C)C)c5)n4n3)cc2)CC1` (stereo not drawn) [Example 576, 4-(4-{7-[3-(Propane-2-sulfonyl)-phenyl]-pyrrolo[2,1-f][1,2,4]triazin-2-ylamino}-phenyl)-cyclohexanone O-methyl-oxime], the pIC50 was > 7.00 in experiment [1] and 5.00 to 6.00 in experiment [2].
The corresponding values for `CC(C)(C)NS(=O)(=O)c1cccc(-c2ccc3cnc(Nc4ccc(C5CN(CC(N)=O)C5)cc4)nn23)c1` [Example 577, 2-(3-{4-[7-(3-tert-Butylsulfamoyl-phenyl)-pyrrolo[2,1-f][1,2,4]triazin-2-ylamino]-phenyl}-azetidin-1-yl)-acetamide] are > 7.00 and 6.00 to 7.00.
The corresponding values for `CS(=O)(=O)c1cccc(-c2ccc3cnc(Nc4ccc(C5CN(CC(N)=O)C5)cc4)nn23)c1` [Example 578, 2-(3-{4-[7-(3-Methanesulfonyl-phenyl)-pyrrolo[2,1-f][1,2,4]triazin-2-ylamino]-phenyl}-azetidin-1-yl)-acetamide] are > 7.00 and 6.00 to 7.00.
The corresponding values for `COc1cc(-c2ccc3cnc(Nc4ccc(C5CCN(CC(N)=O)CC5)cc4)nn23)c(OC)nn1` [Example 580, 2-(4-{4-[7-(3,6-Dimethoxy-pyridazin-4-yl)-pyrrolo[2,1-f][1,2,4]triazin-2-ylamino]-phenyl}-piperidin-1-yl)-acetamide] are > 7.00 and 6.00 to 7.00.
Take `COc1cc(-c2ccc3cnc(Nc4ccc(C5CN(CC(N)=O)C5)cc4)nn23)c(OC)nn1` [Example 581, 2-(3-{4-[7-(3,6-Dimethoxy-pyridazin-4-yl)-pyrrolo[2,1-f][1,2,4]triazin-2-ylamino]-phenyl}-azetidin-1-yl)-acetamide]: the results for the pIC50 in experiment [1] and in experiment [2] were > 7.00 and 6.00 to 7.00, respectively.
In the same order, the values of `CS(=O)(=O)N1Cc2cccc(-c3ccc4cnc(Nc5ccc(C6CN(CC(N)=O)C6)cc5)nn34)c2C1` [Example 582, 2-(3-{4-[7-(2-Methanesulfonyl-2,3-dihydro-1H-isoindol-4-yl)-pyrrolo[2,1-f][1,2,4]triazin-2-ylamino]-phenyl}-azetidin-1-yl)-acetamide] are > 7.00 and 5.00 to 6.00.
In the same order, the values of `COc1ccccc1-c1ccc2cnc(Nc3ccc(C4CN(CC(N)=O)C4)cc3)nn12` [Example 583, 2-(3-{4-[7-(2-Methoxy-phenyl)-pyrrolo[2,1-f][1,2,4]triazin-2-ylamino]-phenyl}-azetidin-1-yl)-acetamide] are > 7.00 and 6.00 to 7.00.
In the same order, the values of `COc1ccc(-c2ccc3cnc(Nc4ccc(C5CN(CC(N)=O)C5)cc4)nn23)cn1` [Example 584, 2-(3-{4-[7-(6-Methoxy-pyridin-3-yl)-pyrrolo[2,1-f][1,2,4]triazin-2-ylamino]-phenyl}-azetidin-1-yl)-acetamide] are > 7.00 and 6.00 to 7.00.
In the case of `Cn1cc(-c2ccc3cnc(Nc4ccc(C5CN(CC(N)=O)C5)cc4)nn23)cn1` [Example 585, 2-(3-{4-[7-(1-Methyl-1H-pyrazol-4-yl)-pyrrolo[2,1-f][1,2,4]triazin-2-ylamino]-phenyl}-azetidin-1-yl)-acetamide], the pIC50 in experiment [1] was > 7.00; in experiment [2], 6.00 to 7.00.
The corresponding values for `CN(c1ccccc1-c1ccc2cnc(Nc3ccc(C4CN(CC(N)=O)C4)cc3)nn12)S(C)(=O)=O` [Example 586, 2-[3-(4-{7-[2-(Methanesulfonyl-methyl-amino)-phenyl]-pyrrolo[2,1-f][1,2,4]triazin-2-ylamino}-phenyl)-azetidin-1-yl]-acetamide] are > 7.00 and > 7.00.
In the same order, the values of `NC(=O)CN1CC(c2ccc(Nc3ncc4ccc(-c5cccc6c5OCC6)n4n3)cc2)C1` [Example 587, 2-(3-{4-[7-(2,3-Dihydro-benzofuran-7-yl)-pyrrolo[2,1-f][1,2,4]triazin-2-ylamino]-phenyl}-azetidin-1-yl)-acetamide] are > 7.00 and > 7.00.
In the same order, the values of `CC(C)Oc1cccc(-c2ccc3cnc(Nc4ccc(C5CCN(CC(N)=O)CC5)cc4)nn23)c1` [Example 588, 2-(4-{4-[7-(3-Isopropoxy-phenyl)-pyrrolo[2,1-f][1,2,4]triazin-2-ylamino]-phenyl}-piperidin-1-yl)-acetamide] are > 7.00 and 6.00 to 7.00.
Consider `CN1CCN(CC2CCN(c3ccc(Nc4ncc5ccc(-c6cccc(S(=O)(=O)NC(C)(C)C)c6)n5n4)cc3)CC2)CC1` [Example 589, N-tert-Butyl-3-(2-{4-[4-(4-methyl-piperazin-1-ylmethyl)-piperidin-1-yl]-phenylamino}-pyrrolo[2,1-f][1,2,4]triazin-7-yl)-benzenesulfonamide], for which the pIC50 in experiment [1] and in experiment [2] was > 7.00 throughout.
`CC(C)(C)NS(=O)(=O)c1cccc(-c2ccc3cnc(Nc4ccc(=O)[nH]c4)nn23)c1` [Example 590, N-tert-Butyl-3-[2-(6-oxo-1,6-dihydro-pyridin-3-ylamino)-pyrrolo[2,1-f][1,2,4]triazin-7-yl]-benzenesulfonamide]: the pIC50 in experiment [1] is > 7.00; in experiment [2] it was 5.00 to 6.00.
Regarding `COc1ccccc1-c1ccc2cnc(Nc3ccc(=O)[nH]c3)nn12` [Example 591, 5-[7-(2-Methoxy-phenyl)-pyrrolo[2,1-f][1,2,4]triazin-2-ylamino]-1H-pyridin-2-one], the values for the pIC50 in experiment [1] and in experiment [2] were > 7.00 and 5.00 to 6.00, respectively.
For `CN(C)S(=O)(=O)c1cccc(Nc2ncc3ccc(-c4cccc(S(=O)(=O)NC(C)(C)C)c4)n3n2)c1` [Example 592, 3-({7-[3-(tert-butylsulfamoyl)phenyl]pyrrolo[2,1-f][1,2,4]triazin-2-yl}amino)-N,N-dimethylbenzenesulfonamide], the results for the pIC50 in experiment [1] and in experiment [2] were > 7.00 and 5.00 to 6.00, respectively.
In the same order, the values of `CN(C)S(=O)(=O)c1ccc(Nc2ncc3ccc(-c4cccc(S(=O)(=O)NC(C)(C)C)c4)n3n2)cc1` [Example 593, 4-({7-[3-(tert-butylsulfamoyl)phenyl]pyrrolo[2,1-f][1,2,4]triazin-2-yl}amino)-N,N-dimethylbenzenesulfonamide] are > 7.00 and < 5.00.
Consider `COc1ccccc1-c1ccc2cnc(Nc3cccc(S(=O)(=O)N(C)C)c3)nn12` [Example 594, 3-[7-(2-Methoxy-phenyl)-pyrrolo[2,1-f][1,2,4]triazin-2-ylamino]-N,N-dimethyl-benzenesulfonamide], for which the pIC50 in experiment [1] was > 7.00; in experiment [2] it was 5.00 to 6.00.
In the same order, the values of `CN(c1ccccc1-c1ccc2cnc(Nc3ccc(=O)[nH]c3)nn12)S(C)(=O)=O` [Example 596, N-Methyl-N-{2-[2-(6-oxo-1,6-dihydro-pyridin-3-ylamino)-pyrrolo[2,1-f][1,2,4]triazin-7-yl]-phenyl}-methanesulfonamide] are > 7.00 and 5.00 to 6.00.
In the same order, the values of `CS(=O)(=O)c1cccc(-c2ccc3cnc(Nc4ccc(F)c(Cl)c4)nn23)c1` [Example 597, (3-Chloro-4-fluoro-phenyl)-[7-(3-methanesulfonyl-phenyl)-pyrrolo[2,1-f][1,2,4]triazin-2-yl]-amine] are > 7.00 and < 5.00.
`Cn1cc(-c2ccc3cnc(N4CCC(Oc5cccc(N)c5)CC4)nn23)cn1` [Example 598, 3-{1-[7-(1-Methyl-1H-pyrazol-4-yl)-pyrrolo[2,1-f][1,2,4]triazin-2-yl]-piperdin-4-yloxy}-phenylamine]: the pIC50 in experiment [1] is 6.00 to 7.00; in experiment [2], < 5.00.
The corresponding values for `Cc1nc2cc(Nc3ncc4ccc(-c5cccc(S(C)(=O)=O)c5)n4n3)ccc2o1` [Example 599, [7-(3-Methanesulfonyl-phenyl)-pyrrolo[2,1-f][1,2,4]triazin-2-yl]-(2-methyl-benzoxazol-5-yl)-amine] are > 7.00 and 5.00 to 6.00.
